Measured values from patent publication US9212171B2, “Ethynyl compounds” (Hoffmann-La Roche Inc., priority 2011, dated 2015).

Biological target: human mGlu5a receptor (Homo sapiens (Human), UniProt P41594)
Experiment: Intracellular Ca2+ mobilization assay (mGlu5 PAM)
Assay type: cell-based
Conditions: for EC50: HEK-293 cells stably transfected with human mGlu5a, L-glutamate added at EC20 (typically around 80 μM); for Emax / Eff. (%): maximal response in % of the maximal stimulatory effect obtained with saturating concentrations of L-glutamate; for Emax: read-out: Eff. (%)
Description: A monoclonal HEK-293 cell line stably transfected with a cDNA encoding for the human mGlu5a receptor was generated; for the work with mGlu5 Positive Allosteric Modulators (PAMs), a cell line with low receptor expression levels and low constitutive receptor activity was selected to allow the differentiation of agonistic versus PAM activity. Cells were cultured according to standard protocols (Freshney, 2000) in Dulbecco's Modified Eagle Medium with high glucose supplemented with 1 mM glutamine, 10% (vol/vol) heat-inactivated bovine calf serum, Penicillin/Streptomycin, […] hygromycin and 15 μg/ml blasticidin (all cell culture reagents and antibiotics from Invitrogen, Basel, Switzerland).
About 24 hrs before an experiment, 5×10^4 cells/well were seeded in poly-D-lysine coated, black/clear-bottomed 96-well plates. The cells were loaded with 2.5 μM Fluo-4AM in loading buffer (1×HBSS, 20 mM HEPES) for 1 hr at 37° C. and washed five times with loading buffer. The cells were transferred into a Functional Drug Screening System 7000 (Hamamatsu, Paris, France), and 11 half logarithmic serial dilutions of test compound at 37° C. were added and the cells were incubated for 10-30 min. with on-line recording of fluorescence. Following this pre-incubation step, the agonist L-glutamate was added to the cells at a concentration corresponding to EC20 (typically around 80 μM) with on-line recording of fluorescence; in order to account for day-to-day variations in the responsiveness of cells, the EC20 of glutamate was determined immediately ahead of each experiment by recording of a full dose-response curve of glutamate.
Responses were measured as peak increase in fluorescence minus basal (i.e. fluorescence without addition of L-glutamate), normalized to the maximal stimulatory effect obtained with saturating concentrations of L-glutamate. Graphs were plotted with the % maximal stimulatory using XLfit, a curve fitting program that iteratively plots the data using Levenburg Marquardt algorithm. The single site competition analysis equation used was y=A+((B−A)/(1+((x/C)D))), where y is the % maximal stimulatory effect, A is the minimum y, B is the maximum y, C is the EC50, x is the log 10 of the concentration of the competing compound and D is the slope of the curve (the Hill Coefficient). From these curves the EC50 (concentration at which half maximal stimulation was achieved), the Hill coefficient as well as the maximal response in % of the maximal stimulatory effect obtained with saturating concentrations of L-glutamate were calculated.
A depression of the signal observed after addition of the EC20 concentration of L-glutamate was indicative of an inhibitory activity of the test compound.

Sequence of human mGlu5a receptor (P41594 other isoform, or with tags, fused parts or gaps): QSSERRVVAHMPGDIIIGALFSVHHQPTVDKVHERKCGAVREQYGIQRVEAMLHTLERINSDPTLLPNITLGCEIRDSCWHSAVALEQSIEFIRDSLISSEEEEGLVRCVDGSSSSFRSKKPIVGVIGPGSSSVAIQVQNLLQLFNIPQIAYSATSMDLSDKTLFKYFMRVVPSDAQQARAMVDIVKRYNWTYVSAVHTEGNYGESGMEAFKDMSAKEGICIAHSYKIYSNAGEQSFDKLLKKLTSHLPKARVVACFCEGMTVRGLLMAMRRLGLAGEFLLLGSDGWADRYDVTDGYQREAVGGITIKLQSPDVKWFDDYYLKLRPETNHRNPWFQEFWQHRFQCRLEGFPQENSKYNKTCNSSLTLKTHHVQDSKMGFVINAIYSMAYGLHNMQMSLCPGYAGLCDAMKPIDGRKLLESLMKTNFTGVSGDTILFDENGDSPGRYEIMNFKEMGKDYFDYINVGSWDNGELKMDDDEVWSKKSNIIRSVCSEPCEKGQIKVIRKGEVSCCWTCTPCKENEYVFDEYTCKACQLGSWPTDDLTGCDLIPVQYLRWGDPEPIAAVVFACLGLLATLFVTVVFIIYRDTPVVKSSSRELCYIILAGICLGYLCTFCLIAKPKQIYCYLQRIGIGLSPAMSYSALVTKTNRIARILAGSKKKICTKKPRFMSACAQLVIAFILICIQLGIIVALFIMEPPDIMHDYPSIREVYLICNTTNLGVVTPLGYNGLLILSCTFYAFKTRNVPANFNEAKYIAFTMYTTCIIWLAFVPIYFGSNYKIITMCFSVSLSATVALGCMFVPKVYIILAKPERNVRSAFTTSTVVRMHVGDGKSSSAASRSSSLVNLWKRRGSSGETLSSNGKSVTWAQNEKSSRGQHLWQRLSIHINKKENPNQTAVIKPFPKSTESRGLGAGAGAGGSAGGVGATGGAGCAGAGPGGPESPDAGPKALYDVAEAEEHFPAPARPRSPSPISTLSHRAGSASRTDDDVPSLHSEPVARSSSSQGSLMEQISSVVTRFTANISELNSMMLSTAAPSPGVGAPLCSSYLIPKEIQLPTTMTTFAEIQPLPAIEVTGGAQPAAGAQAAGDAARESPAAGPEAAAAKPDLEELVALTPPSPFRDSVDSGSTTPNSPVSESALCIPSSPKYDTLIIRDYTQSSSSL

CN1C(=O)[C@H](c2ccc(C#Cc3cccc(F)c3)cn2)[C@@H]2CCCC[C@@H]21 (racemic) [Example 39, (3SR,6SR,7SR)-3-[5-(3-Fluoro-phenylethynyl)-pyridin-2-yl]-1-methyl-octahydro-indol-2-one]
EC50: 141 nM | Emax: 61%

CN1C(=O)C(c2ccc(C#Cc3ccnc(Cl)c3)cn2)CC1(C)C (racemic) [Example 44, (RS)-3-[5-(2-Chloro-pyridin-4-ylethynyl)-pyridin-2-yl]-1,5,5-trimethyl-pyrrolidin-2-one]
EC50: 88 nM | Emax: 32%

CN1CCCC[C@@H](c2ccc(C#Cc3ccccc3)cn2)C1=O (single isomer, unassigned) [Example 25, (S or R)-1-Methyl-3-(5-phenylethynyl-pyridin-2-yl)-azepan-2-one]
EC50: 35 nM | Emax: 70%

CN1CCCC[C@H](c2ccc(C#Cc3ccccc3)cn2)C1=O (single isomer, unassigned) [Example 26, (R or S)-1-Methyl-3-(5-phenylethynyl-pyridin-2-yl)-azepan-2-one]
EC50: 265 nM | Emax: 69%

CN1C(=O)[C@@H](c2ccc(C#Cc3ccccc3)cn2)[C@@H]2CCC[C@@H]21 (single isomer, unassigned) [Example 28, (3R,3aS,6aS) or (3S,3aR,6aR)-1-Methyl-3-(5-phenylethynyl-pyridin-2-yl)-hexahydro-cyclopenta[b]pyrrol-2-one]
EC50: 24 nM | Eff. (%): 58%

CN1C(=O)[C@@H](c2ccc(C#Cc3cccc(F)c3)cn2)[C@@H]2CCC[C@@H]21 (single isomer, unassigned) [Example 31, (3R,3aS,6aS) or (3S,3aR,6aR)-3-[5-(3-Fluoro-phenylethynyl)-pyridin-2-yl]-1-methyl-hexahydro-cyclopenta[b]pyrrol-2-one]
EC50: 25 nM | Eff. (%): 51%

CN1C(=O)[C@H](c2ccc(C#Cc3cccc(F)c3)cn2)[C@H]2CCC[C@H]21 (single isomer, unassigned) [Example 32, (3S,3aR,6aR) or (3R,3aS,6aS)-3-[5-(3-Fluoro-phenylethynyl)-pyridin-2-yl]-1-methyl-hexahydro-cyclopenta[b]pyrrol-2-one]
EC50: 48 nM | Emax: 68%

CN1C(=O)[C@@H](c2ccc(C#Cc3ccnc(Cl)c3)cn2)CC1(C)C (single isomer, unassigned) [Example 45, (S) or (R)-3-[5-(2-Chloro-pyridin-4-ylethynyl)-pyridin-2-yl]-1,5,5-trimethyl-pyrrolidin-2-one]
EC50: 65 nM | Emax: 36%

CN1C(=O)[C@H](c2ccc(C#Cc3ccnc(Cl)c3)cn2)CC1(C)C (single isomer, unassigned) [Example 46, (R) or (S)-3-[5-(2-Chloro-pyridin-4-ylethynyl)-pyridin-2-yl]-1,5,5-trimethyl-pyrrolidin-2-one]
EC50: 103 nM | Emax: 40%

CN1C(=O)C(c2ccc(C#Cc3ccc(F)cc3)nn2)CC1(C)C (centres unmarked) [Example 10, 3-(6-((4-fluorophenyl)ethynyl)pyridazin-3-yl)-1,5,5-trimethylpyrrolidin-2-one]
EC50: 247 nM | Emax: 99%

CN1C(=O)[C@@H](c2ccc(C#Cc3ccccc3)cn2)[C@@H]2CCCC[C@@H]21 [Example 36, (3R,6S,7S)-1-Methyl-3-(5-phenylethynyl-pyridin-2-yl)-octahydro-indol-2-one]
EC50: 84 nM | Emax: 92%

CN1C(=O)[C@H](c2ccc(C#Cc3ccccc3)cn2)[C@H]2CCCC[C@H]21 [Example 37, (3S,6R,7R)-1-Methyl-3-(5-phenylethynyl-pyridin-2-yl)-octahydro-indol-2-one]
EC50: 84 nM | Emax: 49%

CN1C(=O)[C@@H](c2ccc(C#Cc3cccc(F)c3)cn2)[C@@H]2CCCC[C@@H]21 [Example 40, (3R,6S,7S)-3-[5-(3-Fluoro-phenylethynyl)-pyridin-2-yl]-1-methyl-octahydro-indol-2-one]
EC50: 89 nM | Emax: 68%

CN1C(=O)[C@H](c2ccc(C#Cc3cccc(F)c3)cn2)[C@H]2CCCC[C@H]21 [Example 41, (3S,6R,7R)-3-[5-(3-fluoro-phenylethynyl)-pyridin-2-yl]-1-methyl-octahydro-indol-2-one]
EC50: 68 nM | Emax: 56%

CN1C(=O)[C@@H](c2ccc(C#Cc3ccc(F)cc3)cn2)[C@@H]2CCCC[C@@H]21 [Example 42, (3R,6S,7S)-3-[5-(4-Fluoro-phenylethynyl)-pyridin-2-yl]-1-methyl-octahydro-indol-2-one]
EC50: 57 nM | Emax: 63%

CN1C(=O)[C@H](c2ccc(C#Cc3ccc(F)cc3)cn2)[C@H]2CCCC[C@H]21 [Example 43, (3S,6R,7R)-3-[5-(4-fluoro-phenylethynyl)-pyridin-2-yl]-1-methyl-octahydro-indol-2-one]
EC50: 146 nM | Emax: 53%
